# Columns and labels:
# [1] = system: Tritrichomonas foetus; assay: Tested for anti-trichomonal activity in Tritrichomonas foetus, expressed as % reduction in the severity of peritoneal cavity infection at the dose of 25 mg/kg
# [2] = system: Tritrichomonas foetus; assay: Tested for anti-trichomonal activity in Tritrichomonas foetus, expressed as % reduction in the severity of peritoneal cavity infection at the dose of 12.50 mg/kg; conditions: dose 12.5 mg/kg
# [3] = system: Tritrichomonas foetus; assay: Tested for anti-trichomonal activity in Tritrichomonas foetus, expressed as % reduction in the severity of peritoneal cavity infection at the dose of 50 mg/kg
SMILES,Reduction [1] [%],Reduction [2] [%],Reduction [3] [%]
Cn1c(=O)ccc2c1nc1ccccc1[n+]2[O-],23,–,–
COC(Cn1c(=N)ccc2c1nc1ccccc1[n+]2[O-])OC,25,–,–
CCn1c(=N)ccc2nc3ccccc3nc21,89,0,–
CCCn1c(=N)ccc2c1nc1ccccc1[n+]2[O-],–,–,0
C=CCn1c(=N)ccc2c1nc1ccccc1[n+]2[O-],38,–,–
N=c1ccc2c(nc3ccccc3[n+]2[O-])n1CCO,57,–,–
N=c1ccc2c(nc3ccccc3[n+]2[O-])n1Cc1ccncc1,81,18,95
Cn1c(=O)ccc2nc3ccccc3nc21,18,–,–
Cn1c(=N)ccc2nc3ccccc3nc21,75,34,98
N=c1ccc2c(nc3ccccc3[n+]2[O-])n1C1CCCCC1,96,21,–
N=c1ccc2c(nc3ccccc3[n+]2[O-])n1Cc1ccccc1,19,–,–
CCn1c(=N)ccc2c1nc1ccccc1[n+]2[O-],100,0,–
COCCn1c(=N)ccc2c1nc1ccccc1[n+]2[O-],96,0,–
CCOCCn1c(=N)ccc2c1nc1ccccc1[n+]2[O-],–,–,9
Cn1c(=N)ccc2c1nc1ccccc1[n+]2[O-],97,100,98
N=c1ccc2nc3ccccc3nc2n1Cc1ccncc1,–,–,15

# — ChEMBL document CHEMBL1122197, “Pyridoquinoxaline N-oxides. 1. A new class of antitrichomonal agents” (1982)
